Assay results from ChEMBL document CHEMBL5625190, “Novel fused imidazotriazines acting as promising top. II inhibitors and apoptotic inducers with greater selectivity against head and neck tumors: Design, synthesis, and biological assessments” (Eur J Med Chem, 2023).
In brackets after ≈: the same amount, converted by molar mass.

Legend:
HepG2 [1] = experiment: Growth inhibition of human HepG2 cells assessed as reduction in cell viability at 100 ug/ml by SRB colorimetric assay relative to control; format: functional; settings: read-out: GI
NCI-H460 = experiment: Growth inhibition of human NCI-H460 cells assessed as reduction in cell viability at 100 ug/ml by SRB colorimetric assay relative to control; format: functional; settings: read-out: GI
MG-63 = experiment: Growth inhibition of human MG-63 cells assessed as reduction in cell viability at 100 ug/ml by SRB colorimetric assay relative to control; format: functional; settings: read-out: GI
MDA-MB-231 [2] = experiment: Growth inhibition of human MDA-MB-231 cells assessed as reduction in cell viability at 100 ug/ml by SRB colorimetric assay relative to control; format: functional; settings: read-out: GI
HCT-116 = experiment: Growth inhibition of human HCT-116 cells assessed as reduction in cell viability at 100 ug/ml by SRB colorimetric assay relative to control; format: functional; settings: read-out: GI
[3] = Growth inhibition of human Oral epithelial cell assessed as reduction in cell viability at 100 ug/ml by SRB colorimetric assay relative to control; format: toxicity, cell-based; settings: oral epithelial cells, at 100 µg/mL, read-out: GI
A549 = experiment: Growth inhibition of human A549 cells assessed as reduction in cell viability at 100 ug/ml by SRB colorimetric assay relative to control; format: functional; settings: read-out: GI
Huh-7 = experiment: Growth inhibition of human Huh-7 cells assessed as reduction in cell viability at 100 ug/ml by SRB colorimetric assay relative to control; format: functional; settings: read-out: GI
HNO 97 cell line [4] = experiment: Growth inhibition of human HNO 97 cell line assessed as reduction in cell viability at 100 ug/ml by SRB colorimetric assay relative to control; format: functional; settings: read-out: GI
[5] = target: DNA topoisomerase 2-beta (Homo sapiens) (UniProt Q02880); experiment: Inhibition of human DNA topoisomerase 2-beta by ELISA method relative to control; settings: concentration not given here
MCF7 = experiment: Growth inhibition of human MCF7 cells assessed as reduction in cell viability at 100 ug/ml by SRB colorimetric assay relative to control; format: functional; settings: read-out: GI
PC-3 = experiment: Growth inhibition of human PC-3 cells assessed as reduction in cell viability at 100 ug/ml by SRB colorimetric assay relative to control; format: functional; settings: read-out: GI
Caco-2 = experiment: Growth inhibition of human Caco-2 cells assessed as reduction in cell viability at 100 ug/ml by SRB colorimetric assay relative to control; format: functional; settings: read-out: GI
BT-474 = experiment: Growth inhibition of human BT-474 cells assessed as reduction in cell viability at 100 ug/ml by SRB colorimetric assay relative to control; format: functional; settings: read-out: GI
A-375 = experiment: Growth inhibition of human A-375 cells assessed as reduction in cell viability at 100 ug/ml by SRB colorimetric assay relative to control; format: functional; settings: read-out: GI
[6] = Upregulation of p53 expression in human HNO 97 cell line assessed as fold change by sandwich ELISA analysis; format: functional
HNO 97 cell line [7] = experiment: Antioxidant activity against human HNO 97 cell line assessed as increase in GSH level measured after 48 hrs by Ellmans method relative to control; format: functional
HepG2 [8] = experiment: Growth inhibition of human HepG2 cell line assessed as reduction in cell viability by SRB colorimetric assay; format: functional, cell-based
HNO 97 cell line [9] = experiment: Antioxidant activity against human HNO 97 cell line assessed as MDA level measured after 48 hrs relative to control; format: functional
[10] = Downregulation of BCL2 expression in human HNO 97 cell line assessed as fold change by sandwich ELISA analysis; format: functional
HNO 97 cell line [11] = experiment: Induction of apoptosis in human HNO 97 cell line assessed as increase in early apoptotic cells by Annexin-V/PI staining based analysis (reference value: 0.23%); format: functional
HNO 97 cell line [12] = experiment: Antioxidant activity against human HNO 97 cell line assessed as NO level measured after 48 hrs relative to control; format: functional
[13] = Downregulation of IL-6 expression in human HNO 97 cell line assessed as fold change by sandwich ELISA analysis; format: functional
HNO 97 cell line [14] = experiment: Induction of apoptosis in human HNO 97 cell line assessed as increase in late apoptotic cells by Annexin-V/PI staining based analysis (reference value: 0.12%); format: functional
HNO 97 cell line [15] = experiment: Induction of cell cycle arrest in human HNO 97 cell line assessed as increase in cell level at S phase by flow cytometry analysis (reference value: 23.37%); format: functional
HNO 97 cell line [16] = experiment: Induction of cell cycle arrest in human HNO 97 cell line assessed as increase in cell level at G2-M phase by flow cytometry analysis (reference value: 0.66%); format: functional
[17] = Upregulation of BAX expression in human HNO 97 cell line assessed as fold change by sandwich ELISA analysis; format: functional
MDA-MB-231 [18] = experiment: Growth inhibition of human MDA-MB-231 cell line assessed as reduction in cell viability by SRB colorimetric assay; format: functional, cell-based
HNO 97 cell line [19] = experiment: Growth inhibition of human HNO 97 cell line assessed as reduction in cell viability by SRB colorimetric assay; format: functional, cell-based

Sequence of DNA topoisomerase 2-beta (Homo sapiens) (Q02880 whole entry): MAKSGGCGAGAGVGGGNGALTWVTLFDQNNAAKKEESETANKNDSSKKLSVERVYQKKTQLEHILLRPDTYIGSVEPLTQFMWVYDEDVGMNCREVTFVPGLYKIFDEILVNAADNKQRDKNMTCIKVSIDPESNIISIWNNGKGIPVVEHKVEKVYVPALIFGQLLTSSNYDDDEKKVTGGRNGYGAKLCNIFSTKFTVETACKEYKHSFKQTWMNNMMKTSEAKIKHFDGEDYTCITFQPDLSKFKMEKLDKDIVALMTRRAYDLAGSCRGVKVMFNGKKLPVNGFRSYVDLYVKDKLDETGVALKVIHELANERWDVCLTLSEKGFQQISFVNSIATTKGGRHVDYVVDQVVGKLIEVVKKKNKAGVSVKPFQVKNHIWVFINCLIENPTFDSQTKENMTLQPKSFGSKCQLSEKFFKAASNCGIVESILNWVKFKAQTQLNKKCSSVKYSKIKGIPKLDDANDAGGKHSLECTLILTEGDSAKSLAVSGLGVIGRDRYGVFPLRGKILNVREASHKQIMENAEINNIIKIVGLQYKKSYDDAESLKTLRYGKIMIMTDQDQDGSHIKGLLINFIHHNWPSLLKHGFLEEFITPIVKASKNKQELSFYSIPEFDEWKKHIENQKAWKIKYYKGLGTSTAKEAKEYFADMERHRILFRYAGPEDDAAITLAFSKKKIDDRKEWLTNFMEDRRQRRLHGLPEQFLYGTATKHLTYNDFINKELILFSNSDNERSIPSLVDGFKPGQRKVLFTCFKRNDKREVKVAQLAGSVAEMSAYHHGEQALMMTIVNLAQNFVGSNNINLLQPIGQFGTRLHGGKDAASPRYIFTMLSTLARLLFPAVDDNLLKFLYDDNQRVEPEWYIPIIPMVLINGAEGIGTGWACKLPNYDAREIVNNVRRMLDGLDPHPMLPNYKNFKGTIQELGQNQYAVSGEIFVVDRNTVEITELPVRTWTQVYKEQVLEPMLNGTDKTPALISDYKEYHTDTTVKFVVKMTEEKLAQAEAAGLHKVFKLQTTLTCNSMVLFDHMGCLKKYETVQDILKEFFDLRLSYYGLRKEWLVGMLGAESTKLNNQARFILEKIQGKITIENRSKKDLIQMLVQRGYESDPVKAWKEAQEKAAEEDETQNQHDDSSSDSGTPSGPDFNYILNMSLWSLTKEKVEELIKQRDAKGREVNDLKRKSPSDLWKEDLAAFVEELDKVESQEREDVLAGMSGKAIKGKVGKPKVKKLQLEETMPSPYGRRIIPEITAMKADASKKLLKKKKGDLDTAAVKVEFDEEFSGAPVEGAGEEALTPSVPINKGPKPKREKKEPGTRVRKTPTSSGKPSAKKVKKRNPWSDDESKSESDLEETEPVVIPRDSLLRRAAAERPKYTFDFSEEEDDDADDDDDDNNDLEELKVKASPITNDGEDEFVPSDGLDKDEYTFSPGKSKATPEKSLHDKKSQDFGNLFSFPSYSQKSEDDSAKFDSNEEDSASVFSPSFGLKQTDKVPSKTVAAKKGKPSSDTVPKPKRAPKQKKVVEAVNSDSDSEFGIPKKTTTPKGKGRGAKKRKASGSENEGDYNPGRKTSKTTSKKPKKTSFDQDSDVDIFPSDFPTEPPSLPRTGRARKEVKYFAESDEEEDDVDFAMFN

Row | Structure (SMILES) | inhibition of growth at 100 µg/mL (HepG2 [1]) [%] | inhibition of growth at 100 µg/mL (NCI-H460) [%] | inhibition of growth at 100 µg/mL (MG-63) [%] | inhibition of growth at 100 µg/mL (MDA-MB-231 [2]) [%] | inhibition of growth at 100 µg/mL (HCT-116) [%] | inhibition at 100 ug/ml [3] [%] | inhibition of growth at 100 µg/mL (A549) [%] | inhibition of growth at 100 µg/mL (Huh-7) [%] | inhibition of growth at 100 µg/mL (HNO 97 cell line [4]) [%] | inhibition [5] [%] | inhibition of growth at 100 µg/mL (MCF7) [%] | inhibition of growth at 100 µg/mL (PC-3) [%] | inhibition of growth at 100 µg/mL (Caco-2) [%] | inhibition of growth at 100 µg/mL (BT-474) [%] | inhibition of growth at 100 µg/mL (A-375) [%] | IC50 (HepG2 [8]) [µg/mL] | IC50 (MDA-MB-231 [18]) [µg/mL] | IC50 (HNO 97 cell line [19]) [µg/mL] | other results
1 | CC(C)c1ccc(C2N=C(N)Nc3nc4ccccc4n32)cc1 (configuration not stated) | 63.7 | 65.6 | 58 | 78.6 | 55.6 | 7.69 | 49 | 54.7 | 75.7 | 77.5 | 55.4 | 71.7 | 59.2 | 61.7 | 58.1 |  |  |  | 
2 | NC1=Nc2nc3ccccc3n2C(c2ccc(Cl)c(Cl)c2)N1 (configuration not stated) | 63.6 | 73.4 | 66.4 | 75 | 51.1 | 41.6 | 67.5 | 72.5 | 78 | 81.7 | 62 | 75.5 | 50.7 | 57.7 | 63 | 4.8 (≈ 14.4 µM) | 4 (≈ 12 µM) | 3 (≈ 9.03 µM) | fold change (FC) [6]: 2.16; Activity (HNO 97 cell line [7]): 189.32%; Activity (HNO 97 cell line [9]): 51.93%; fold change (FC) [10]: 0.24; Activity (HNO 97 cell line [11]): 9.27%; Activity (HNO 97 cell line [12]): 62.06%; fold change (FC) [13]: 0.67; Activity (HNO 97 cell line [14]): 0.9%; Activity (HNO 97 cell line [15]): 58.07%; Activity (HNO 97 cell line [16]): 4.99%; fold change (FC) [17]: 2.39
3 | COc1cccc2c1C(=O)c1c(O)c3c(c(O)c1C2=O)C[C@@](O)(C(=O)CO)C[C@@H]3O[C@H]1C[C@H](N)[C@H](O)[C@H](C)O1 [DOXORUBICIN] | 59.3 | 73.6 | 69.9 | 78.2 | 71.3 | 70.4 | 49 | 74.8 | 80.3 | 86.4 | 69 | 68 | 80.8 | 44.7 | 64.1 | 4.6 (≈ 8.46 µM) | 8.6 (≈ 15.8 µM) | 9 (≈ 16.6 µM) | 
4 | COc1cc(C2NC(N)=Nc3nc4ccccc4n32)ccc1OCc1ccccc1 (configuration not stated) | 41.3 | 30.4 | 13.1 | 51.7 | 39 | 21 | 30.5 | 26.9 | 63.2 |  | 48.9 | 44.6 | 40.1 | 1 | 45.1 |  |  |  | 
5 | NC1=Nc2nc3ccccc3n2C(c2ccc(Cl)cc2Cl)N1 (configuration not stated) | 76.5 | 71.8 | 66.7 | 71.5 | 51.8 | 62.8 | 69 | 73.6 | 82.6 | 87.9 | 72.6 | 74.3 | 63.4 | 52.4 | 67.2 | 9 (≈ 27.1 µM) | 10 (≈ 30.1 µM) | 4 (≈ 12 µM) | fold change (FC) [6]: 2.32; Activity (HNO 97 cell line [7]): 177.01%; Activity (HNO 97 cell line [9]): 46.33%; fold change (FC) [10]: 0.15; Activity (HNO 97 cell line [11]): 4.99%; Activity (HNO 97 cell line [12]): 56.5%; fold change (FC) [13]: 0.64; Activity (HNO 97 cell line [14]): 1.42%; Activity (HNO 97 cell line [15]): 46.4%; Activity (HNO 97 cell line [16]): 27.94%; fold change (FC) [17]: 2.46
6 | NC1=NC(c2ccccc2)n2c(nc3ccccc32)N1 (configuration not stated) | 66.6 | 65.3 | 56 | 68.2 | 61.1 | 24.4 | 59.1 | 68.1 | 78.1 |  | 60.2 | 72.7 | 61.7 | 51.4 | 63.4 |  |  |  | 
7 | NC1=Nc2nc3ccccc3n2C(c2cccc3ccccc23)N1 (configuration not stated) | 59 | 61.1 | 58 | 76.2 | 55.7 | 45.9 | 54.4 | 58.7 | 61.1 |  | 53.7 | 59 | 59.9 | 61.4 | 52.8 |  |  |  | 
8 | NC1=Nc2nc3ccccc3n2C(c2cccc(Cl)c2Cl)N1 (configuration not stated) | 72.5 | 73.1 | 63.2 | 75.1 | 59.6 | 38.4 | 67.8 | 67 | 78.6 |  | 63.6 | 71.5 | 61.1 | 60.4 | 68.7 |  |  |  | 
